Source: ChEMBL document CHEMBL4373693, “Virtual Screening Approach and Investigation of Structure-Activity Relationships To Discover Novel Bacterial Topoisomerase Inhibitors Targeting Gram-Positive and Gram-Negative Pathogens” (J Med Chem, 2019)
≈ marks a conversion by molar mass, not a printed value. Blank lines part the entries; values can stand above or below the molecule they belong to.

What was measured:
[1] = target: Topoisomerase IV (Staphylococcus aureus, UniProt P0C1S7+P0C1U9); assay: Inhibition of Staphylococcus aureus DNA topoisomerase 4; type: protein-complex assay
[2] = Inhibition of Escherichia coli DNA topoisomerase 4
[3] = target: DNA gyrase (Escherichia coli, UniProt P0AES4+P0AES6); assay: Inhibition of Escherichia coli DNA gyrase; type: protein-complex assay
[4] = tested on: Staphylococcus aureus; assay: Antibacterial activity against Staphylococcus aureus; type: functional
[5] = tested on: Escherichia coli; assay: Antibacterial activity against Escherichia coli; type: functional
[6] = target: DNA gyrase (Staphylococcus aureus, UniProt P0A0K8+P20831); assay: Inhibition of Staphylococcus aureus DNA gyrase; type: protein-complex assay
[7] = tested on: Escherichia coli; assay: Selectivity ratio of MIC for Escherichia coli ATCC 25922 in presence of 50% human serum to MIC for Escherichia coli ATCC 25922; type: functional
[8] = tested on: Haemophilus influenzae; assay: Antibacterial activity against quinolone-sensitive Haemophilus influenzae ATCC 49766 after 16 to 24 hrs by broth microdilution method; type: functional
[9] = target: DNA topoisomerase 4 subunit A (Staphylococcus aureus, UniProt P0C1U9); assay: Inhibition of Staphylococcus aureus ATCC 29213 DNA topoisomerase 4 subunit ParC assessed as reduction in decatenation of kinetoplast DNA incubated for 30 mins by ethidium bromide staining based gel electrophoresis method
[10] = tested on: Staphylococcus aureus; assay: Antibacterial activity against Staphylococcus aureus BAA-1720 after 16 to 24 hrs by broth microdilution method; type: functional
[11] = Selectivity ratio, ratio of IC50 for human HEK293 cells to MIC for Staphylococcus aureus ATCC 29213; type: toxicity; details: read-out: Selectivity Index
[12] = tested on: Haemophilus influenzae; assay: Antibacterial activity against quinolone-sensitive Haemophilus influenzae H128 after 16 to 24 hrs by broth microdilution method; type: functional
[13] = target: DNA gyrase subunit A (Staphylococcus aureus, UniProt P20831); assay: Inhibition of Staphylococcus aureus ATCC 29213 DNA gyrase A assessed as reduction in enzyme-mediated supercoiling of relaxed pBR322 DNA by ethidium bromide staining based gel electrophoresis method
[14] = Selectivity ratio, ratio of IC50 for human HepG2 cells to MIC for Escherichia coli ATCC 25922; type: toxicity; details: read-out: Selectivity Index
[15] = tested on: HEK293; assay: Cytotoxicity against human HEK293 cells after 48 hrs by Alamar blue staining-based fluorometric analysis; type: cell-based; details: HEK293, 48 h
[16] = tested on: Staphylococcus aureus; assay: Antibacterial activity against Staphylococcus aureus BAA-1720 in presence of 50% human serum after 16 to 24 hrs by broth microdilution method; type: functional
[17] = tested on: Staphylococcus aureus; assay: Antibacterial activity against Staphylococcus aureus ATCC 29213 after 16 to 24 hrs by broth microdilution method; type: functional
[18] = Selectivity ratio, ratio of IC50 for human HepG2 cells to MIC for Staphylococcus aureus ATCC 29213; type: toxicity; details: read-out: Selectivity Index
[19] = tested on: Neisseria gonorrhoeae; assay: Antibacterial activity against Neisseria gonorrhoeae ATCC 19424 after 16 to 24 hrs by broth microdilution method; type: functional
[20] = tested on: Pseudomonas aeruginosa; assay: Antibacterial activity against Pseudomonas aeruginosa ATCC 27853 after 16 to 24 hrs by CLSI method; type: functional
[21] = tested on: Staphylococcus aureus; assay: Selectivity ratio of MIC for Staphylococcus aureus ATCC 29213 in presence of 50% human serum to MIC for Staphylococcus aureus ATCC 29213; type: functional
[22] = tested on: Staphylococcus aureus; assay: Selectivity ratio of MIC for Staphylococcus aureus BAA-1720 in presence of 50% human serum to MIC for Staphylococcus aureus BAA-1720; type: functional
[23] = tested on: Enterococcus faecalis; assay: Antibacterial activity against Enterococcus faecalis ATCC 29212 after 16 to 24 hrs by broth microdilution method; type: functional
[24] = Selectivity ratio, ratio of IC50 for human HEK293 cells to MIC for Escherichia coli ATCC 25922; type: toxicity; details: read-out: Selectivity Index
[25] = tested on: Staphylococcus aureus; assay: Antibacterial activity against Staphylococcus aureus ATCC 29213 in presence of 50% human serum after 16 to 24 hrs by broth microdilution method; type: functional
[26] = tested on: Escherichia coli; assay: Antibacterial activity against Escherichia coli ATCC 25922 after 16 to 24 hrs by broth microdilution method; type: functional
[27] = tested on: HT-29; assay: Cytotoxicity against human HT-29 cells after 24 hrs by resazurin dye based CellTiter-Blue assay; type: cell-based; details: HT-29, 24 h
[28] = tested on: HepG2; assay: Cytotoxicity against human HepG2 cells after 48 hrs by Alamar blue staining-based fluorometric analysis; type: cell-based; details: HepG2, 48 h
[29] = Cytotoxicity against human HCE2 cells incubated for 2 hrs by MTT assay; type: cell-based
[30] = target: DNA gyrase subunit A (Escherichia coli K-12, UniProt P0AES4); assay: Inhibition of Escherichia coli ATCC 25922 DNA gyrase A assessed as reduction in enzyme-mediated supercoiling of relaxed pBR322 DNA by ethidium bromide staining based gel electrophoresis method
[31] = tested on: Escherichia coli; assay: Antibacterial activity against Escherichia coli ATCC 25922 in presence of 50% human serum after 16 to 24 hrs by broth microdilution method; type: functional
[32] = tested on: Klebsiella pneumoniae; assay: Antibacterial activity against quinolone-sensitive Klebsiella pneumoniae ATCC 700603 after 16 to 24 hrs by broth microdilution method; type: functional
[33] = target: T1, DNA topoisomerase 4 subunit A (Escherichia coli K-12, UniProt P0AFI2); assay: Inhibition of Escherichia coli ATCC 25922 DNA topoisomerase 4 subunit ParC assessed as reduction in decatenation of kinetoplast DNA incubated for 30 mins by ethidium bromide staining based gel electrophoresis method
T1 sequence (P0AFI2 whole entry): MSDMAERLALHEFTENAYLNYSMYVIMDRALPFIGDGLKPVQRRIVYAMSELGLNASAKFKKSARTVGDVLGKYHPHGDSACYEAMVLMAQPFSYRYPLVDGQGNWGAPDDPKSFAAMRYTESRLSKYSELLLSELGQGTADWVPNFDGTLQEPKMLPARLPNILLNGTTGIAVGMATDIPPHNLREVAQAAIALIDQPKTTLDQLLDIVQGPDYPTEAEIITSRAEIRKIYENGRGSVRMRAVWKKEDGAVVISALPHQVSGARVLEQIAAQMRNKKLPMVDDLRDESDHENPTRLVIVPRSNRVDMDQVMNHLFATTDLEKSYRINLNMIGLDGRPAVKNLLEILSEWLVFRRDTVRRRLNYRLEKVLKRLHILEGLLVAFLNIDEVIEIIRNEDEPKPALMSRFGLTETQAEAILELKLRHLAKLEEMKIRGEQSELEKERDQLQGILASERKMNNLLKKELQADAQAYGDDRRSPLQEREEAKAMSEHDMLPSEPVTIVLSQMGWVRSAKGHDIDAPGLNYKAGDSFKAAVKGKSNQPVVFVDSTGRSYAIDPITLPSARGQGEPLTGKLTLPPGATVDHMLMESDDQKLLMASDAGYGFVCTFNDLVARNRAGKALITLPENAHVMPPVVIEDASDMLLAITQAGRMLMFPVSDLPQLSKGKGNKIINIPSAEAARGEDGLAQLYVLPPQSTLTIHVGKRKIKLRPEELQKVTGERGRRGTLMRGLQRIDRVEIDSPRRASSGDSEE

[34] = tested on: Enterococcus faecium; assay: Antibacterial activity against vancomycin resistant and teicoplanin sensitive Enterococcus faecium APV 00420 after 16 to 24 hrs by broth microdilution method; type: functional

IC50 [1]: 2000 nM
IC50 [2]: 30 nM
IC50 [3]: 125 nM
MIC90 [4]: 0.016 µg/mL (≈ 0.0334 µM)
MIC90 [5]: 0.5 µg/mL (≈ 1.04 µM)
IC50 [6]: 8 nM
Compound: O=C1COc2ccc(N3C[C@H](CCCN[C@@H]4Cn5c(=O)ccc6ccc(F)c4c65)OC3=O)nc2N1

Compound: COc1ccc2cc(F)nc(N3CCN(CC(O)CNc4cc(=O)oc5ccc(F)cc45)CC3)c2c1 (racemic)
Ratio [7]: >=32 - 267
MIC [8]: 0.5 µg/mL (≈ 1.01 µM)
IC50 [9]: < 100 nM
MIC [10]: 0.03 µg/mL (≈ 0.0604 µM)
selectivity ratio [11]: > 5500
MIC [12]: 0.5 µg/mL (≈ 1.01 µM)
IC50 [13]: < 100 nM
selectivity ratio [14]: 25
IC50 [15]: 66000 nM
MIC [16]: 4 µg/mL
MIC [17]: < 0.12 µM
selectivity ratio [18]: > 208
MIC [19]: ≤ 0.06 µg/mL
MIC [20]: 4 µg/mL (≈ 8.06 µM)
Ratio [21]: >=32 - 267
Ratio [22]: >=32 - 267
MIC [23]: 0.25 µg/mL (≈ 0.504 µM)
selectivity ratio [24]: 66
MIC [25]: 8 µg/mL
MIC [26]: 1 µM (≈ 0.497 µg/mL)
IC50 [27]: > 100000 nM
IC50 [28]: 25000 nM
IC50 [29]: > 150000 nM
IC50 [30]: 40 nM
MIC [31]: > 8 µg/mL
MIC [32]: 4 µg/mL (≈ 8.06 µM)
IC50 [33]: 100 nM
MIC [34]: 0.12 µg/mL (≈ 0.242 µM)
